Results taken from patent US4209588A, “Process for producing new antitumor anthracycline antibiotics” (Zaidan Hojin Biseibutsu Kagaku Kenkyu Kai, priority 1976, dated 1980).
In brackets after ≈: the same amount, converted by molar mass.

Tests used:
[1] = Acute toxicity, single intraperitoneal injection; conditions: mouse, in vivo, ip; single i.p. injection, dd mice; read-out: LD50, intraperitoneal administration
Bac. subtilis ATCC 6633 = experiment: Minimum inhibitory concentration, broth dilution method; conditions: Bacillus subtilis, ATCC6633
[2] = system: Ps. fluoroescens NIHJB-254; experiment: as above
Bac. cereus ATCC 9634 = experiment: as above; conditions: Bacillus cereus, ATCC9634
P388 leukemia = experiment: Inhibition of growth of P388 leukemia in mice; type: in vivo
L1210 cells = experiment: Growth inhibition of cultured L1210 cells; conditions: Mus musculus, L1210, read-out: % Inhibition, Growth (on Day 2)
Can. tropicalis IAM 4942 = experiment: Minimum inhibitory concentration, broth dilution method; conditions: Candida tropicalis, IAM4942
[3] = system: solid and ascitic-type mammalian malignant tumors; experiment: Inhibitory action against solid and ascitic-type mammalian malignant tumors; type: in vivo, mammals
[4] = system: Mycobact. smegmatis ATCC 607; experiment: Minimum inhibitory concentration, broth dilution method
Staph. aureus Smith = experiment: as above; conditions: Staphylococcus aureus
Sar. lutea ATCC 9341 = experiment: as above; conditions: Micrococcus luteus, ATCC9341
Can. albicans IAM 4905 = experiment: as above; conditions: Candida albicans, IAM4905
Pr. morganii = experiment: as above; conditions: Morganella morganii
Mic. flavus = experiment: as above; conditions: Micrococcus flavus
Staph. aureus FDA 209P = experiment: as above; conditions: Staphylococcus aureus, FDA209P
[5] = system: Bac. megaterium NRRL B-938; experiment: as above; conditions: Priestia megaterium, NRRLB938
Corv. bovis 1810 = experiment: as above
[6] = P388 leukemia in mice, in words
[7] = solid and ascitic-type mammalian tumors, in words

Structure (SMILES) | LD50 [1] [mg/kg] | MIC (Bac. subtilis ATCC 6633) [µg/mL] | MIC [2] [µg/mL] | MIC (Bac. cereus ATCC 9634) [µg/mL] | inhibiting the growth of P388 leukemia (P388 leukemia; [6]) | inhibition at 0.1 µg/mL (L1210 cells) [%] | MIC (Can. tropicalis IAM 4942) [µg/mL] | inhibitory action against malignant tumors [3, 7] | MIC [4] [µg/mL] | MIC (Staph. aureus Smith) [µg/mL] | MIC (Sar. lutea ATCC 9341) [µg/mL] | MIC (Can. albicans IAM 4905) [µg/mL] | MIC (Pr. morganii) [µg/mL] | MIC (Mic. flavus) [µg/mL] | MIC (Staph. aureus FDA 209P) [µg/mL] | MIC [5] [µg/mL] | MIC (Corv. bovis 1810) [µg/mL] | inhibiting the growth of P388 leukemia (P388 leukemia; mouse, in vivo) | inhibitory action against malignant tumors ([3]; in vivo)
CC[C@@]1(O)C[C@H](O[C@H]2C[C@H](N(C)C)[C@H](O[C@H]3C[C@H](O)[C@H](O[C@H]4C[C@H](O)[C@H](O)[C@H](C)O4)[C@H](C)O3)[C@H](C)O2)c2c(cc3c(c2O)C(=O)c2c(O)cccc2C3=O)[C@H]1C(=O)OC [MA 144-U1] | 30.2 | 3.1 (≈ 3.74 µM) | > 100 | 1.56 (≈ 1.88 µM) | effective in inhibiting the growth of malignant tumors | 78.5 | > 100 | marked inhibitory action | > 100 | 3.1 (≈ 3.74 µM) | 1.56 (≈ 1.88 µM) | > 100 | > 100 | 1.56 (≈ 1.88 µM) | 6.25 (≈ 7.53 µM) | 3.1 (≈ 3.74 µM) | 6.25 (≈ 7.53 µM) |  | 
CC[C@@]1(O)C[C@H](O[C@H]2C[C@H](N(C)C)[C@H](O[C@H]3C[C@H](O)[C@H](O[C@H]4C=CC(=O)[C@H](C)O4)[C@H](C)O3)[C@H](C)O2)c2c(cc3c(c2O)C(=O)c2c(O)cccc2C3=O)[C@H]1C(=O)OC [MA 144-Y] | 40 to 50 | 0.2 (≈ 0.247 µM) | > 100 | 0.1 (≈ 0.123 µM) | effective in inhibiting the growth of malignant tumors | 90.2 | > 100 | marked inhibitory action | 3.1 (≈ 3.83 µM) | 0.2 (≈ 0.247 µM) | 0.2 (≈ 0.247 µM) | > 100 | > 100 | 0.1 (≈ 0.123 µM) | 0.4 (≈ 0.494 µM) | 0.2 (≈ 0.247 µM) | 0.2 (≈ 0.247 µM) |  | 
CC[C@@]1(O)C[C@H](O[C@H]2C[C@H](N(C)C)[C@H](O[C@H]3C[C@H](O)[C@H](O)[C@H](C)O3)[C@H](C)O2)c2c(cc3c(c2O)C(=O)c2c(O)cccc2C3=O)[C@H]1C(=O)OC [MA 144-S1, 2-deoxy-L-fucosyl-L-rhodosaminyl-aklavinone] | 24.4 | 3.1 (≈ 4.43 µM) | > 100 | 1.56 (≈ 2.23 µM) | effective in inhibiting the growth of malignant tumors | 86 | > 100 | marked inhibitory action | > 100 | 3.1 (≈ 4.43 µM) | 1.56 (≈ 2.23 µM) | > 100 | > 100 | 1.56 (≈ 2.23 µM) | 6.25 (≈ 8.93 µM) | 3.1 (≈ 4.43 µM) | 0.78 (≈ 1.11 µM) |  | 
CC[C@@]1(O)C[C@H](O[C@H]2C[C@H](N(C)C)[C@H](O[C@H]3C[C@H](O)[C@H](OC4CCC(=O)C(C)O4)[C@H](C)O3)[C@H](C)O2)c2c(cc3c(c2O)C(=O)c2c(O)cccc2C3=O)[C@H]1C(=O)OC (stereo partly drawn) [D-cinerulosyl-2-deoxy-L-fucosyl-L-rhodosaminyl-alkavinone] | 28.5 | 3.12 (≈ 3.84 µM) | 100 (≈ 123 µM) | 1.56 (≈ 1.92 µM) |  | 80.7 | 100 (≈ 123 µM) |  | 3.12 (≈ 3.84 µM) | 1.56 (≈ 1.92 µM) | 0.78 (≈ 0.961 µM) | 100 (≈ 123 µM) | > 100 | 0.2 (≈ 0.246 µM) | 6.25 (≈ 7.7 µM) | 6.25 (≈ 7.7 µM) | 1.56 (≈ 1.92 µM) | effective in inhibiting the growth of malignant tumors | marked inhibitory action
CC[C@@]1(O)C[C@H](O[C@H]2C[C@H](N(C)C)[C@H](O[C@H]3C[C@H](O)[C@H](O[C@H]4CCC(=O)[C@H](C)O4)[C@H](C)O3)[C@H](C)O2)c2c(cc3c(c2O)C(=O)c2c(O)cccc2C3=O)[C@H]1C(=O)OC [Aclacinomycin, reference compound] |  |  |  |  |  | 89.7 |  |  |  |  |  |  |  |  |  |  |  |  | 
CC[C@@]1(O)C[C@H](O[C@H]2C[C@H](N(C)C)[C@H](O[C@H]3C[C@H](O)[C@H](O[C@H]4CC[C@H](O)[C@H](C)O4)[C@H](C)O3)[C@H](C)O2)c2c(cc3c(c2O)C(=O)c2c(O)cccc2C3=O)[C@H]1C(=O)OC [MA 144-N1] | 32.5 | 3.1 (≈ 3.81 µM) | > 100 | 0.78 (≈ 0.958 µM) | effective in inhibiting the growth of malignant tumors | 79.2 | > 100 | marked inhibitory action | > 100 | 0.78 (≈ 0.958 µM) | 0.78 (≈ 0.958 µM) | > 100 | > 100 | 0.4 (≈ 0.491 µM) | 6.25 (≈ 7.68 µM) | 3.1 (≈ 3.81 µM) | 0.78 (≈ 0.958 µM) |  | 
CC[C@@]1(O)C[C@H](O[C@H]2C[C@H](N(C)C)[C@H](O[C@H]3C[C@H](O)[C@H](OC4CCC(=O)C(C)O4)[C@H](C)O3)[C@H](C)O2)c2c(cc3c(c2O)C(=O)c2c(O)ccc(O)c2C3=O)[C@H]1C(=O)OC (stereo partly drawn) [D-cinerulosyl-2-deoxy-L-fucosyl-L-rhodosaminyl-ε-pyrromycinone] | 17 | 1.56 (≈ 1.88 µM) | 100 (≈ 121 µM) | 0.78 (≈ 0.942 µM) |  | 82.1 | > 100 |  | 3.12 (≈ 3.77 µM) | 1.56 (≈ 1.88 µM) | 0.78 (≈ 0.942 µM) | > 100 | > 100 | 0.2 (≈ 0.242 µM) | 3.12 (≈ 3.77 µM) | 6.25 (≈ 7.55 µM) | 0.78 (≈ 0.942 µM) | effective in inhibiting the growth of malignant tumors | marked inhibitory action
CC[C@@]1(O)C[C@H](O[C@H]2C[C@H](N(C)C)[C@H](O[C@H]3C[C@H](O)[C@H](O[C@H]4C[C@H](O)[C@H](O)[C@H](C)O4)[C@H](C)O3)[C@H](C)O2)c2c(cc3c(c2O)C(=O)c2c(O)ccc(O)c2C3=O)[C@H]1C(=O)OC [MA 144-U2] | 14.5 | 3.1 (≈ 3.66 µM) | > 100 | 1.56 (≈ 1.84 µM) |  | 80.5 | > 100 |  | > 100 | 0.78 (≈ 0.922 µM) | 1.56 (≈ 1.84 µM) | > 100 | > 100 | 0.78 (≈ 0.922 µM) | 3.1 (≈ 3.66 µM) | 1.56 (≈ 1.84 µM) | 6.25 (≈ 7.39 µM) | effective in inhibiting the growth of malignant tumors | 
CC[C@@]1(O)C[C@H](O[C@H]2C[C@H](N(C)C)[C@H](O[C@H]3C[C@H](O)[C@H](O)[C@H](C)O3)[C@H](C)O2)c2c(cc3c(c2O)C(=O)c2c(O)ccc(O)c2C3=O)[C@H]1C(=O)OC [MA 144-S2] | 12.5 | 3.1 (≈ 4.33 µM) | > 100 | 0.78 (≈ 1.09 µM) | effective in inhibiting the growth of malignant tumors | 88.1 | > 100 |  | > 100 | 0.78 (≈ 1.09 µM) | 1.56 (≈ 2.18 µM) | > 100 | > 100 | 0.78 (≈ 1.09 µM) | 6.25 (≈ 8.73 µM) | 3.1 (≈ 4.33 µM) | 0.78 (≈ 1.09 µM) |  | 
CC[C@@]1(O)C[C@H](O[C@H]2C[C@H](NC)[C@H](O[C@H]3C[C@H](O)[C@H](O[C@H]4CCC(=O)[C@H](C)O4)[C@H](C)O3)[C@H](C)O2)c2c(cc3c(c2O)C(=O)c2c(O)cccc2C3=O)[C@H]1C(=O)OC [MA 144-L] | 45.5 | 3.1 (≈ 3.89 µM) | 100 (≈ 125 µM) | 1.56 (≈ 1.96 µM) | effective in inhibiting the growth of malignant tumors | 27.4 | 100 (≈ 125 µM) | marked inhibitory action | 3.1 (≈ 3.89 µM) | 1.56 (≈ 1.96 µM) | 0.78 (≈ 0.978 µM) | 100 (≈ 125 µM) | > 100 | 0.2 (≈ 0.251 µM) | 6.25 (≈ 7.83 µM) | 6.25 (≈ 7.83 µM) | 1.56 (≈ 1.96 µM) |  | 
